Data as given in ChEMBL document CHEMBL1201862, “PubChem BioAssay data set” (2004).
Activity calls are given as the source filed them.

Legend:
[1] = biological target: T1, Voltage-gated N-type calcium channel alpha-1B subunit/Amyloid beta A4 precursor protein-binding family A member 1 (Homo sapiens, UniProt Q00975+Q02410); assay type: protein assay
[2] = biological target: T1, Voltage-gated N-type calcium channel alpha-1B subunit/Amyloid beta A4 precursor protein-binding family A member 1; assay type: protein assay; remark: listed apart in the source
[3] = biological target: T2, Intestinal-type alkaline phosphatase (Homo sapiens, UniProt P09923); assay: human intestinal alkaline phosphatase activators, dose response, biochemical, luminescence, uHTS hits (AID 463120); assay type: functional
T2 sequence (P09923 whole entry): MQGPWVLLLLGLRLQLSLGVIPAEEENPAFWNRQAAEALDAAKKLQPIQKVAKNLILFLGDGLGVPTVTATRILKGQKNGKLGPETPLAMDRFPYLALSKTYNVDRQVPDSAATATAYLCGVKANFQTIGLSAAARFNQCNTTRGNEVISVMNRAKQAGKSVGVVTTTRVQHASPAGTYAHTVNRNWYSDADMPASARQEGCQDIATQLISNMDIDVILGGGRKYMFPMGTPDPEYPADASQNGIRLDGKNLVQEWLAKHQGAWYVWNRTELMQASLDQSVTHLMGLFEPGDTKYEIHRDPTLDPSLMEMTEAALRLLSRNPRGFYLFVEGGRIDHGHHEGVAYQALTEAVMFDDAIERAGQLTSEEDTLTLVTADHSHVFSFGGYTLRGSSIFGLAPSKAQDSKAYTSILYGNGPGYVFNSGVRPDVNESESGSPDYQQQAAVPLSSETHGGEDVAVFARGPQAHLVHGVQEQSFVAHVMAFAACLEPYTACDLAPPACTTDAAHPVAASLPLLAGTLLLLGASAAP

Hexokinase HKDC1 = biological target: T3, Hexokinase HKDC1 (Homo sapiens, UniProt Q2TB90); assay: activation of HKDC1 glucose phosphorylation – biochemical, W721R variant, dose response (AID 504730); assay type: functional
T3 sequence (Q2TB90 whole entry): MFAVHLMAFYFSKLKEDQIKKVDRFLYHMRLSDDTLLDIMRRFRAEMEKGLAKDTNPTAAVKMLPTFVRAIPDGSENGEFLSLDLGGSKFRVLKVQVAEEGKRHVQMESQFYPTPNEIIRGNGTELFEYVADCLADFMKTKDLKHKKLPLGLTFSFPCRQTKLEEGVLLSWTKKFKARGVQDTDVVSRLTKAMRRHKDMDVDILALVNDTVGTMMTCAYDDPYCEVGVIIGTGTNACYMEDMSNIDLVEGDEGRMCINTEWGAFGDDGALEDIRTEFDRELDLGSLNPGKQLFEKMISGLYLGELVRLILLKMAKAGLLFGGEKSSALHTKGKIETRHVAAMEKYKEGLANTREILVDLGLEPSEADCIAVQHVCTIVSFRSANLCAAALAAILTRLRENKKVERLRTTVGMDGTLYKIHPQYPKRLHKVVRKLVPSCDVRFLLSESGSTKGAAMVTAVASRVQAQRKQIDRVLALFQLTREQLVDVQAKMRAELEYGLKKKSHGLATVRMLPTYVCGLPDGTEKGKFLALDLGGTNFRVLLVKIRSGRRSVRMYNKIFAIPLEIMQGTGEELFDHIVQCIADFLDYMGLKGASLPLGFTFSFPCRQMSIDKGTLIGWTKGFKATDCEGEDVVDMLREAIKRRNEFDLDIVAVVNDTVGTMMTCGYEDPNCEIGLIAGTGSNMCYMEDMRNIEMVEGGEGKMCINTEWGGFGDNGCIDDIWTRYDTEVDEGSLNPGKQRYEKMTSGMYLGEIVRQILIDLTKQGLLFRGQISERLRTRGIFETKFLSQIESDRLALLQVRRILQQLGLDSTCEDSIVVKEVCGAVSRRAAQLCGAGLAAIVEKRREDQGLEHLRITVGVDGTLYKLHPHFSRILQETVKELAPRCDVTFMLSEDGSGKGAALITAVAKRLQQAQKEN

Hexokinase-1 = biological target: T4, Hexokinase-1 (Homo sapiens, UniProt P19367); assay: HK1 enzyme activation by HKDC1 hits – biochemical, selectivity assay for HKDC1 activator project, dose response (AID 504762); assay type: functional
T4 sequence (P19367 whole entry): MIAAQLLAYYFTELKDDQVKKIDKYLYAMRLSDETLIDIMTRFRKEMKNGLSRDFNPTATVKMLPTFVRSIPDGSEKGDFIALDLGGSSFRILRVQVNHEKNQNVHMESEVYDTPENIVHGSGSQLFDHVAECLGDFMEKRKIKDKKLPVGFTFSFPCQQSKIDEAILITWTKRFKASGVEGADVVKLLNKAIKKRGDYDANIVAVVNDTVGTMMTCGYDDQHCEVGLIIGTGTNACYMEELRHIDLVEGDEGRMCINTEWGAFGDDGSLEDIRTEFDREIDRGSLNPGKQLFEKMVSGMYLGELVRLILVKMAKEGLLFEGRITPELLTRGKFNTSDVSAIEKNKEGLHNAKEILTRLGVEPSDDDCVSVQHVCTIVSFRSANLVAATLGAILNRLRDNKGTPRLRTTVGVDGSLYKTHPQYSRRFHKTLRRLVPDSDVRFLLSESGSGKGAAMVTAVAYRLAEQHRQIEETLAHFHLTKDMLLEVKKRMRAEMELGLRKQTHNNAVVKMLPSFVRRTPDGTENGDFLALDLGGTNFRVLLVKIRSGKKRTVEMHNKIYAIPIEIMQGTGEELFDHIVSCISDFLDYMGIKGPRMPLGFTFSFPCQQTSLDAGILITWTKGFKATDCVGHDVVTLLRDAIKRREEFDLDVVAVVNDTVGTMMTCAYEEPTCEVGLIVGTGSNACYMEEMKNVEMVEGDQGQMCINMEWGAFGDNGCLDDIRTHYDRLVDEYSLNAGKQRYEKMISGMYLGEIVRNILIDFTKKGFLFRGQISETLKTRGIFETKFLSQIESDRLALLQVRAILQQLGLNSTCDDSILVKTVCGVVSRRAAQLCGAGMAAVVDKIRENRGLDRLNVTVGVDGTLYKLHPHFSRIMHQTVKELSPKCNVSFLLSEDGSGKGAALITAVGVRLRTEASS

INS1 = assay: INS-1E survival protection against cytokine death – cell-based, luminescence, retest, dose response (AID 449756); assay type: functional; settings: Rattus norvegicus;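 also: cell death triggered by IL-1 beta plus TNF-alpha plus IFN-gamma mixture; protective hits raise ATP signal compared with cytokine alone wells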
[4] = biological target: T2, Intestinal-type alkaline phosphatase; assay: Dose Response confirmation of uHTS hits from a small molecule inhibitors of human intestinal alkaline phosphatase via a luminescent assay. [Related pubchem assays (depositor defined):AID2544, AID2574]; assay type: functional
[5] = biological target: T5, Oxysterols receptor LXR-beta (Homo sapiens, UniProt P55055); assay type: functional, cell-based;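 also: Cell-based luminescence dose-response assay of agonist activity at LXR, run as a confirmatory counterscreen to a daf-12 agonist screen; HEK293 cells with Gal4-LXR fusion and GAL4-driven luciferase reporter; agonist potency from rising luciferase signal of a Gal4-LXR reporter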
T5 sequence (P55055 whole entry): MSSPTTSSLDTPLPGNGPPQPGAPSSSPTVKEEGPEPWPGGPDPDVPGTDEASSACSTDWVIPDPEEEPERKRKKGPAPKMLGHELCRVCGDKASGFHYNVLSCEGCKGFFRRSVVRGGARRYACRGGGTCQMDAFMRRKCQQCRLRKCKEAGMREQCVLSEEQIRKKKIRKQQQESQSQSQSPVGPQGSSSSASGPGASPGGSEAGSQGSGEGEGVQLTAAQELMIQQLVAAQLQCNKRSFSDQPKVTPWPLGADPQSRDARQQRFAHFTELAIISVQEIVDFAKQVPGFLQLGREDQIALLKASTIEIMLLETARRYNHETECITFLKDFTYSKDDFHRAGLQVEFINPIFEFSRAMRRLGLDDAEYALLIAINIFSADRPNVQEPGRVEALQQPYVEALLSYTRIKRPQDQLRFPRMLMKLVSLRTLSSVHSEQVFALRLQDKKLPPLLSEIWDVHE

Keap1/Nrf2 = Keap1/Nrf2 (Homo sapiens, UniProt Q14145); assay: disruptors of Keap1 binding to Nrf2 peptide – biochemical, fluorescence polarization, cherry-picked samples, dose response (AID 588683)
[6] = viability of uninfected HEp-2 cells – cell-based, HTS, cytotoxicity control for RSV inhibitor project, dose response (AID 2410); assay type: functional; settings: human respiratory syncytial virus
[7] = system: Streptococcus sp. 'group A'; assay: Streptococcus pyogenes SK(-)GAS viability under kanamycin – luminescence, BacTiterGlo, confirmation, counter-screen for streptokinase expression inhibitor project, dose response (AID 1900); assay type: functional, organism-based
Streptokinase A = biological target: T6, Streptokinase A (Streptococcus pyogenes serotype M1, UniProt P10520); assay: viability-normalized secreted streptokinase activity reduction – plasminogen activation absorbance, OD405, dose response (AID 1914); assay type: functional, Streptococcus pyogenes M1 GAS;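 also: secreted streptokinase activity via plasminogen activation per viability signal from cell pellet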
T6 sequence (P10520 whole entry): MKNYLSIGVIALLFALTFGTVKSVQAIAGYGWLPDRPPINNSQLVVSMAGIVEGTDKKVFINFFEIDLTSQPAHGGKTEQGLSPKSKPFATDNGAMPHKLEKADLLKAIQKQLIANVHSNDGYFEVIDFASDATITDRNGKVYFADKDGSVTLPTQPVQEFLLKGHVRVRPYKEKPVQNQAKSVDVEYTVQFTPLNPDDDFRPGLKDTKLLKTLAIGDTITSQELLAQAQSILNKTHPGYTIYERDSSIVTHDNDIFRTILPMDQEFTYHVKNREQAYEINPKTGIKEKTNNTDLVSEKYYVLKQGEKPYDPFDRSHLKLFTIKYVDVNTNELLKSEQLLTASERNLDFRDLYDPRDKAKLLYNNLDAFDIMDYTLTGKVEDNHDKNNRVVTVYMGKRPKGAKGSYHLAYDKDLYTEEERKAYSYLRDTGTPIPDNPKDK

[8] = mitochondrial function rescue without frataxin homolog – Friedreich's ataxia, plus single-dose screen, dose response (AID 1465); assay type: functional;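 also: yeast depleted of Yfh1p frataxin homolog grown on glycerol needing respiration; WST-1 tetrazolium dye reduction as measure of cellular dehydrogenase metabolic activity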
Streptococcus = assay: GAS UMAA2166 growth inhibition – luminescence, BacTiterGlo, counter-screen for streptokinase expression inhibitor project, dose response (AID 1915); assay type: functional, organism-based;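 also: potency for reduction of bacterial viability or growth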
[9] = biological target: Peroxisome proliferator-activated receptor gamma/Nuclear receptor coactivator 1 (Homo sapiens, UniProt P37231); assay: (§1) TR-FRET dose response biochemical High Throughput Screening assay for agonists of the steroid receptor coactivator 1 (SRC-1) recruitment by the peroxisome proliferator-activated receptor gamma (PPAR gamma): non-selective agonists. [Related pubchem assays (depositor defined):AID1300, AID1808, AID504735, AID631]; assay type: protein assay
[10] = biological target: Peroxisome proliferator-activated receptor gamma/Nuclear receptor coactivator 3 (Homo sapiens, UniProt P37231); assay: as §1, with “3 (SRC-3)” for “1 (SRC-1)”, “assays: 1301 (Confirmation screen.), 1048 (Primary screen.)]” for “assays (depositor defined):AID1300, AID1808, AID504735, AID631]”; assay type: functional
Sequence of Peroxisome proliferator-activated receptor gamma/Nuclear receptor coactivator 3 (P37231 whole entry): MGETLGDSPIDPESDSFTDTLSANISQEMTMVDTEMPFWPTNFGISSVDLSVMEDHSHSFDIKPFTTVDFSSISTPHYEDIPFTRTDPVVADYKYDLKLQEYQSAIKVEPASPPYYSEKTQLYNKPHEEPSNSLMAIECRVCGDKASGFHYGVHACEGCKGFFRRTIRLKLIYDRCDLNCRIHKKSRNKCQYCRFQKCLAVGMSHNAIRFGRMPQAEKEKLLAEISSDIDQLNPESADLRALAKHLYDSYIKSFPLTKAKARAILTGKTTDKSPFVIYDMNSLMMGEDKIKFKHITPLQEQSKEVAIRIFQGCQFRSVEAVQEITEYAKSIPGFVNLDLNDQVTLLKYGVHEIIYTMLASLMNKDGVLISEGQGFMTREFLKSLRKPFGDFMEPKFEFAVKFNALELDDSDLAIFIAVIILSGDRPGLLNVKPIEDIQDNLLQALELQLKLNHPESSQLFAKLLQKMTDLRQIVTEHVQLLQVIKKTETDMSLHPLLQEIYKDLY
Sequence of Peroxisome proliferator-activated receptor gamma/Nuclear receptor coactivator 3 (Q9Y6Q9 whole entry, further chain): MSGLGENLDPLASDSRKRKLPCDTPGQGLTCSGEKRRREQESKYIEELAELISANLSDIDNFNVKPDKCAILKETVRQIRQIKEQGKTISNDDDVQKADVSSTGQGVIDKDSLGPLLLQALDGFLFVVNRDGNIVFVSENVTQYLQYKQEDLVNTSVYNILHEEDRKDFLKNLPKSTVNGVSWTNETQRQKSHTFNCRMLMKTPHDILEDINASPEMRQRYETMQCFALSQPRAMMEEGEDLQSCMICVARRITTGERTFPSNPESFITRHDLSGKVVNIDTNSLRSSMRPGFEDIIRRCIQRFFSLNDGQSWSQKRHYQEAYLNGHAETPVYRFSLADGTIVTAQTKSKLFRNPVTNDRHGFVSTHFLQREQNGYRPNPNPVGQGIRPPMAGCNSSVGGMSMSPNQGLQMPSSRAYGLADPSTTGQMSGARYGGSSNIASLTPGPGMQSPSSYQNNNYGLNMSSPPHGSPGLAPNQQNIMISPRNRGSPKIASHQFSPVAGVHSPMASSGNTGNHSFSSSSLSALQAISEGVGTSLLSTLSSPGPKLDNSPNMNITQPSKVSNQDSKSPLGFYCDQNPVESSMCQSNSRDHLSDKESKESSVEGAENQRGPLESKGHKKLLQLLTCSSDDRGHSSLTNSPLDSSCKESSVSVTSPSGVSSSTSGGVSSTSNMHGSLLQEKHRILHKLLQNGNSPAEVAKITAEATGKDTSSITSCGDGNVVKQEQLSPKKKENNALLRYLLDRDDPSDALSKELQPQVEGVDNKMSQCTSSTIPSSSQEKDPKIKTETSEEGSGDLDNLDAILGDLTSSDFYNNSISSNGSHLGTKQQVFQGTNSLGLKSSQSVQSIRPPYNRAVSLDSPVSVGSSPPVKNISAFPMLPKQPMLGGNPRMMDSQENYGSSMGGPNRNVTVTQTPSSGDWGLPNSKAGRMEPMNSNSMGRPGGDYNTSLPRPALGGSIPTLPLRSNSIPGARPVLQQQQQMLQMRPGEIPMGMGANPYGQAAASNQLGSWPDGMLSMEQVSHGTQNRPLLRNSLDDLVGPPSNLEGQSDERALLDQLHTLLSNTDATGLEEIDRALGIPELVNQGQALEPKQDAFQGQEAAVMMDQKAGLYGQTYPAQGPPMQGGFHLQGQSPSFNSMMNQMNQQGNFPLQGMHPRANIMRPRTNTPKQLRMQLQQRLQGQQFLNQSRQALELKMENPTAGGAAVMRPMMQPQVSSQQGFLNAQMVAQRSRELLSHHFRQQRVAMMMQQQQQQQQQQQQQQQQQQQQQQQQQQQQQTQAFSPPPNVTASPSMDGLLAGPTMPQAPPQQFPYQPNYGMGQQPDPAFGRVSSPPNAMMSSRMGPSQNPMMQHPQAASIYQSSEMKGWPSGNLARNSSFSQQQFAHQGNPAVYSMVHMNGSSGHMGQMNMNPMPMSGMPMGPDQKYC

[11] = biological target: Peroxisome proliferator-activated receptor gamma/Nuclear receptor coactivator 2 (Homo sapiens, UniProt P37231); assay: TR-FRET dose response biochemical High Throughput Screening assay for agonists of the steroid receptor coactivator 2 (SRC-2) recruitment by the peroxisome proliferator-activated receptor gamma (PPAR gamma): non-selective agonists. [Related pubchem assays: 1297, 1032 ]; assay type: functional
Sequence of Peroxisome proliferator-activated receptor gamma/Nuclear receptor coactivator 2 (P37231 whole entry): as the sequence (P37231 whole entry) above
Sequence of Peroxisome proliferator-activated receptor gamma/Nuclear receptor coactivator 2 (Q15596 whole entry, further chain): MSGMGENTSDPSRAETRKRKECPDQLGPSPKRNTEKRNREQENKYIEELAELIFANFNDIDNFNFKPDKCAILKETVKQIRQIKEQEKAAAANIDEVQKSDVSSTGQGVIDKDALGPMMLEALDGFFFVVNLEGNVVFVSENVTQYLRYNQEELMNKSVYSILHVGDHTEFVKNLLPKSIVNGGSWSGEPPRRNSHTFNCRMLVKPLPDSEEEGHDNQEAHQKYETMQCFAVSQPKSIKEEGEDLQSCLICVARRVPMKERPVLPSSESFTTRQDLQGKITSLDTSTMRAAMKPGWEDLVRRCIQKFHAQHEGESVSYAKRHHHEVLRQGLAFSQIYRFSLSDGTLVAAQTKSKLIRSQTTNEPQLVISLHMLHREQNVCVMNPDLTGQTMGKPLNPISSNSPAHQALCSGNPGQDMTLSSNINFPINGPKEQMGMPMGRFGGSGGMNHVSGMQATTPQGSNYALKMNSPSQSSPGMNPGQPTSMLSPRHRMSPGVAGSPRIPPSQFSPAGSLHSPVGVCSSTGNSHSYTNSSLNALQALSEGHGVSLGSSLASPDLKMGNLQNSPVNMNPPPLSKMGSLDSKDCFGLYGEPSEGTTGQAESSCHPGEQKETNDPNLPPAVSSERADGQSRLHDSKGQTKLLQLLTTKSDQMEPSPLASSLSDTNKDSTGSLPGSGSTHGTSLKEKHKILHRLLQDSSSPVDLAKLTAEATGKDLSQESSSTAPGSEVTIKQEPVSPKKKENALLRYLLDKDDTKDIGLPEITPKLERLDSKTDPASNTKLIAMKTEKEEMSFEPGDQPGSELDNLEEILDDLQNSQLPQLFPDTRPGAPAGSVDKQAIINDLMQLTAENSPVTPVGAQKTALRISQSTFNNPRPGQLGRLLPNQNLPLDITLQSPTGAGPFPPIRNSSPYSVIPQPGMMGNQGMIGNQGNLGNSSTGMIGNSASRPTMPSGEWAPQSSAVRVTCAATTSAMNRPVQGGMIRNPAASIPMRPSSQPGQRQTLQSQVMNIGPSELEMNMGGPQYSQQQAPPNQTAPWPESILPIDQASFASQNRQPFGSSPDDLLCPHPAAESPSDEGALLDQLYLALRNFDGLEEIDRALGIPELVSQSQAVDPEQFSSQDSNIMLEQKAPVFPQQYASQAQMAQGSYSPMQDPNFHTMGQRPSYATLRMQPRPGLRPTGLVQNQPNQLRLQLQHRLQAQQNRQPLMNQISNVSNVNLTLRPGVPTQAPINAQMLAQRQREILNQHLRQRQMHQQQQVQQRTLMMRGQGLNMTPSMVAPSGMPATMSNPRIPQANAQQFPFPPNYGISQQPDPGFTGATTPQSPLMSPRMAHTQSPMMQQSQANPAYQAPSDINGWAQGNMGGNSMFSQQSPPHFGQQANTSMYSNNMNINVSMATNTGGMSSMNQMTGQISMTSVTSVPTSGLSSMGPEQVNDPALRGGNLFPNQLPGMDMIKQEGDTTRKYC

CAAX prenyl protease 2 = biological target: T7, CAAX prenyl protease 2 (Saccharomyces cerevisiae S288c, UniProt Q03530); assay type: biochemical
T7 sequence (Q03530 whole entry): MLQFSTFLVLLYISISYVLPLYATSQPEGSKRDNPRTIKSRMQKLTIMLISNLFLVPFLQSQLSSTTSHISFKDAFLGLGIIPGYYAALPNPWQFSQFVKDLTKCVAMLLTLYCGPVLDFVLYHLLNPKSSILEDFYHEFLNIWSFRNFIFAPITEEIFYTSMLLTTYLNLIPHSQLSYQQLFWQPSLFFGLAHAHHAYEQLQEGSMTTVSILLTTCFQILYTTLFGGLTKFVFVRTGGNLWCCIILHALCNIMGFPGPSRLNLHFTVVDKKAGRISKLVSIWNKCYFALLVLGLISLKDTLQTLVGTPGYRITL

[12] = toxicity toward cultured mammalian cells – cell-based, plate reader, cherry-pick samples, cytotoxicity control, dose response (AID 504397); assay type: functional
[13] = biological target: Lysine-specific demethylase 4C (Homo sapiens, UniProt Q9H3R0); assay: inhibition of JMJD2C H3K9me3 demethylation – biochemical, DELFIA europium, cherry-picked samples, dose response (AID 488835); assay type: functional

COc1cccc(/C=N/Nc2nn3cnnc3c3ccccc23)c1O
IC50 [1]: 20.6 µM (active)
IC50 [2]: > 50 µM (inactive)
EC50 [3]: > 100 µM (inactive)

Clc1cccc(NC2=NN=C(c3ccc4c(c3)OCCO4)CS2)c1
EC50 (Hexokinase HKDC1): 23.2 µM (inactive)
EC50 (Hexokinase-1): 41.3 µM (inactive)
AC50 (INS1): 2.25 µM (active)

NC(=O)c1c(NC(=O)c2ccc(F)cc2)sc2c1CCC2
IC50 [4]: > 100 µM (inactive)
EC50 [3]: > 100 µM (inactive)
EC50 [5]: > 67.5 µM (inactive)
EC50 (cells): > 67.5 µM (inactive)

Cc1ccc(NC(=O)/C(C#N)=C(\N)C(Cl)(Cl)Cl)nc1
AC50 (Keap1/Nrf2): 11.9 µM (active)

O=C1CCCc2oc3c(cc(NS(=O)(=O)c4ccc5c6c(cccc46)C(=O)N5)c4ccccc43)c21
CC50 [6]: 25.1 µM (active)
EC50 [7]: 3.82 µM (active)
EC50 (Streptokinase A): > 150 µM (not active)
EC50 [8]: > 100 µM (active)
EC50 (Streptococcus): > 150 µM (not active)
AC50 (Keap1/Nrf2): 51.2 µM (active)

Cc1onc(-c2ccccc2Cl)c1C(=O)Nc1nnc(-c2ccc(Cl)cc2Cl)s1
EC50 [9]: 51.2 µM (inactive)
EC50 [10]: 75.5 µM (not active)
EC50 [11]: 42.8 µM (not active)

Sc1nc(-c2ccc(Cl)cc2)cs1
EC50 [9]: 12 µM (inactive)
EC50 [10]: > 79.4 µM (not active)
EC50 [11]: 21.8 µM (not active)

CCN(CC)CCN(C(=O)c1ccc2ccccc2c1)c1nc2ccc(F)cc2s1
AC50 (CAAX prenyl protease 2): 6.18 µM (active)
AC50 [12]: 181 µM (active)

Nc1cccc(C(=O)Nc2ccco2)c1
AC50 [13]: 27.5 µM (active)
